Paper PMC11796312, “Multifunctional, Fluorene‐Based Modulator of Cholinergic and GABAergic Neurotransmission as a Novel Drug Candidate for Palliative Treatment of Alzheimer's Disease” (Angewandte Chemie (International Ed. in English), 2024)
Entries after “also recorded” stand apart in the source; their conditions may differ.

System: ICR-CD1 mice
Experiment: Dose safety verification after oral (i.g.) administration
Assay type: in vivo
Settings: 10 mg/kg i.g.
Experimental: phosphatase (ALP), amylase, and lactate dehydrogenase (LDH) were measured in the accredited biochemical laboratory of the Department of Clinical Biochemistry and Diagnostics, University Hospital, Hradec Kralove, Czech Republic. Statistical data analysis was performed through IBM SPSS Statistics version 26 (IBM, Armonk, NY, USA) using the Kolmogorov-Smirnov and Shapiro-Wilk tests to test data normality. Due to normally distributed data, the Student´s t-test was used to assess the differences compared with the control group (p ≤ 0.05).
Samples of the liver and kidney were used for standard histopathological examination. Organs were fixed with 10% neutral buffered formalin (Bamed s.r.o., Ceske Budejovice, Czech Republic), histologically processed, and stained with hematoxylin and eosin (both Merck) according to Pejchal et al.[41] The histopathological changes were evaluated using a BX-51 microscope (Olympus, Tokyo, Japan).
Dose safety verification after oral administration
Mice were randomly assigned to the experimental groups of two males and two females per one selected dose (10 mg/kg) of 6 to verify its safety. 6 was administered by a probe (i.g., 0.1 mL/10 g of animal weight; 1% Tween 80). Treated animals were intensively observed for signs of toxicity; then, the animals were subjected to macroscopic examination. The blood was collected for biochemical analysis of glucose, urea, and creatinine concentration and the activity of alanine transaminase (ALT), aspartate transaminase (AST), gamma-glutamyl transferase (GGT), alkaline phosphatase (ALP), amylase, and creatine kinase (CK). Selected organs (terminal esophagus, stomach, duodenum, pancreas, kidney, and liver) were collected for histopathologic examination. […]

O[C@H](CNCC1CC1)[C@H](Cc1ccccc1)NC1c2ccccc2-c2ccccc21 [Compound 6]
Necropsy: no pathology of internal organs | signs of toxicity: no signs of poisoning occurred; also recorded: no signs of toxicity occurred | ALP, plasma (48 h): 61.2 ± 6.2 U/L | ALT, plasma (48 h): 30.0 ± 1.6 U/L | AST, plasma (48 h): 51.3 ± 7.0 U/L | Amylase, plasma (48 h): 2630 ± 110 U/L | CK, plasma (48 h): 123 ± 25 U/L | Glucose, plasma (48 h): 205 ± 16 mg/dL | Urea, plasma (48 h): 38.6 ± 2.5 mg/dL | blood biochemistry vs control (48 h): no significant changes; also recorded: lack of significant changes in blood biochemistry | histopathological examinations (liver, kidney, esophagus, stomach, duodenum, pancreas): no tissue damage
